{"source": "paper PMC11089506", "about": "(Journal of Medicinal Chemistry, 2024)", "key": {"[1]": {"target": "T1, human 5-HT2BR (Homo sapiens, UniProt P41595)", "T1 construct": "host or cells: HEK293 (membrane homogenates)", "assay": "[125I]DOI competition binding assay", "protocol": "(§1) Following incubation, the samples were filtered rapidly under vacuum through glass fiber filters (GF/B, Packard) presoaked with 0.3% polyethylenimine and rinsed several times with ice cold wash buffer (50 mM Tris-HCl, pH 7.4) using a 96-sample cell harvester (Unifilter, Packard). The filters were dried and then counted for radioactivity in a scintillation counter (Topcounter, Packard) using a scintillation cocktail (Microscint-0, Packard)."}, "[2]": {"target": "T2, human 5-HT2CR (Homo sapiens, UniProt P28335)", "assay": "[125I]DOI competition binding assay", "protocol": "as §1"}, "[3]": {"target": "T3, 5-HT3 (Homo sapiens, UniProt P46098)", "T3 construct": "Eurofins", "assay": "radioligand competition binding, [3H]BRL 43694", "conditions": "read-out: % inhibition of the specific radioligand binding"}, "[4]": {"target": "T4, 5-HT4e (Homo sapiens, UniProt Q13639)", "T4 construct": "Eurofins", "assay": "radioligand competition binding, [3H]GR 113808"}, "[5]": {"target": "T5, α1A (adrenergic receptor) (Homo sapiens, UniProt P35348)", "T5 construct": "Eurofins", "assay": "radioligand competition binding, [3H]Prazosin"}, "[6]": {"target": "T6, α2C (adrenergic receptor) (Homo sapiens, UniProt P18825)", "T6 construct": "Eurofins", "assay": "radioligand competition binding, [3H]RX 821002"}, "[7]": {"target": "T7, H1 (histaminergic receptor) (Homo sapiens, UniProt P35367)", "T7 construct": "Eurofins", "assay": "radioligand competition binding, [3H]pyrilamine"}, "[8]": {"target": "T8, M3 (muscarinic receptor) (Homo sapiens, UniProt P20309)", "T8 construct": "Eurofins", "assay": "radioligand competition binding, [3H]4-DAMP"}, "[9]": {"target": "T9, M4 (muscarinic receptor) (Homo sapiens, UniProt P08173)", "T9 construct": "Eurofins", "T9 sequence (P08173 1-479)": "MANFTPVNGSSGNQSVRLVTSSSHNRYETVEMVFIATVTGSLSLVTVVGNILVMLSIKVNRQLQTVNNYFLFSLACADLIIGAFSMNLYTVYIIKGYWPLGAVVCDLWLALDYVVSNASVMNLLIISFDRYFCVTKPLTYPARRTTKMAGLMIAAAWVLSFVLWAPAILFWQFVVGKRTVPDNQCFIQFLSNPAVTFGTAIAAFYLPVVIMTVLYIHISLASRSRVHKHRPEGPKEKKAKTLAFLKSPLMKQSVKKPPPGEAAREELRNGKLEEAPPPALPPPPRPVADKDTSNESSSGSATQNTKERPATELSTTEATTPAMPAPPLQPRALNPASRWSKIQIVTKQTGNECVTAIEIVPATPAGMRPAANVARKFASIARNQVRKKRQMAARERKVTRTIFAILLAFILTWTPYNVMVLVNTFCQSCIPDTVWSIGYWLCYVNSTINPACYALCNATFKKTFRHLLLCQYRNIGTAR", "assay": "radioligand competition binding, [3H]4-DAMP"}, "[10]": {"target": "T10, NET (Homo sapiens, UniProt P23975)", "T10 construct": "Eurofins", "assay": "radioligand competition binding, [3H]nisoxetine"}, "[11]": {"target": "T11, Adrenergic receptor α1B (Homo sapiens, UniProt P35368)", "T11 construct": "Eurofins", "assay": "radioligand competition binding, [3H]Prazosin"}, "[12]": {"target": "T12, Glucocorticoid receptor (Homo sapiens, UniProt P04150)", "T12 construct": "Eurofins", "assay": "radioligand competition binding, [3H]Dexamethasone"}, "[13]": {"target": "T13, NMDA receptor (Glycine) (Rattus norvegicus, UniProt P35439)", "T13 construct": "Eurofins", "assay": "radioligand competition binding, [3H]MDL 105,519"}, "[14]": {"test_system": "Imidazoline receptor I2", "assay": "radioligand competition binding, [3H]Idazoxan", "parameters": "species or system rat"}, "[15]": {"target": "T14, Leukotriene receptor CysLT1 (Homo sapiens, UniProt Q9Y271)", "T14 construct": "Eurofins", "assay": "radioligand competition binding, [125I]LTD4"}, "[16]": {"target": "T15, Neuropeptide Y receptor Y1 (Homo sapiens, UniProt P25929)", "T15 construct": "Eurofins", "assay": "radioligand competition binding, [125I]Peptide YY"}, "[17]": {"target": "T16, Neuropeptide Y receptor Y2 (Homo sapiens, UniProt P49146)", "T16 construct": "Eurofins", "assay": "radioligand competition binding, [125I]Peptide YY"}, "[18]": {"target": "T17, Nicotinic acetylcholine receptor (muscle-type) (Homo sapiens, UniProt P02708+P07510+Q07001)", "T17 construct": "Eurofins", "assay": "radioligand competition binding, [125I]α-Bungarotoxin"}, "[19]": {"test_system": "Phorbol ester", "assay": "radioligand competition binding, [3H]PDBu", "parameters": "species or system mouse"}, "[20]": {"test_system": "Purinergic receptor P2Y", "assay": "radioligand competition binding, [35S]dATPαS", "parameters": "species or system rat"}, "[21]": {"test_system": "Phosphodiesterase", "assay": "radioligand competition binding, [3H]Rolipram", "parameters": "species or system rat"}, "[22]": {"target": "T18, Sigma receptor σ1 (Homo sapiens, UniProt Q99720)", "T18 construct": "Eurofins (contract laboratory)", "assay": "radioligand competition binding, [3H]Pentazocine"}, "[23]": {"target": "T19, Tachykinin receptor NK1 (Homo sapiens, UniProt P25103)", "T19 construct": "Eurofins (contract laboratory)", "assay": "radioligand competition binding, [3H]Substance P"}, "[24]": {"target": "T20, Tachykinin receptor NK3 (Homo sapiens, UniProt P29371)", "T20 construct": "Eurofins (contract laboratory)", "assay": "radioligand competition binding, [125I]MePhe7-Neurokinin B"}, "[25]": {"test_system": "various other targets (Table S4)", "assay": "broad screen, radioligand binding competition assays (Eurofins), summary", "conditions": "high nanomolar or micromolar ranges"}, "[26]": {"target": "Ca2+ Channel L-Type, (Benzothiazepine) (Rattus norvegicus, UniProt P22002)", "assay": "biochemical", "conditions": "read-out: % inhibition of the specific radioligand binding"}, "[27]": {"target": "GABA transporter (Rattus norvegicus, UniProt P23978)", "assay": "biochemical", "conditions": "read-out: % inhibition of the specific radioligand binding"}, "[28]": {"target": "T2, human 5-HT2CR", "assay": "Ca2+/Fluo-4 assay, antagonist mode (5-HT EC90 as agonist), stable 5-HT2CR-HEK293 cells", "conditions": "5-HT2CR pIC50 ± S.E.M., Table S2"}, "[29]": {"conditions": "estimated from the % inhibition data"}, "[30]": {"conditions": "read-out: % inhibition of the specific radioligand binding"}}, "note": "Counter-ions that a name gives are not always drawn."}
{"smiles": "COc1cc(C(F)(F)F)c(OC)cc1[C@@H]1CCCNC1", "note": "[(S)-11, 3-(2,5-Dimethoxy-4-(trifluoromethyl)phenyl)piperidine Hydrochloride]", "values": [{"measurement": "5-HT2BR pKi ± S.E.M.", "setting": "[1]; Table S3", "value": "7.88 ± 0.07"}, {"measurement": "Ki", "setting": "[1]; read-out: Ki at 5-HT2BR", "value": 0.013, "unit": "µM"}, {"measurement": "5-HT2CR pKi ± S.E.M.", "setting": "[2]; Table S3", "value": "7.89 ± 0.10"}, {"measurement": "Ki", "setting": "[2]; read-out: Ki at 5-HT2CR", "value": 0.013, "unit": "µM"}, {"measurement": "inhibition at 10 µM", "setting": "[3]", "value": 6, "unit": "%"}, {"measurement": "IC50", "setting": "[4]; [29]", "value": "> 10", "unit": "µM"}, {"measurement": "inhibition at 10 µM", "setting": "[4]; [30]", "value": 30, "unit": "%"}, {"measurement": "IC50", "setting": "[5]; [29]", "value": "> 10", "unit": "µM"}, {"measurement": "inhibition at 10 µM", "setting": "[5]; [30]", "value": 32, "unit": "%"}, {"measurement": "IC50", "setting": "[6]; [29]", "value": "> 10", "unit": "µM"}, {"measurement": "inhibition at 10 µM", "setting": "[6]; [30]", "value": 36, "unit": "%"}, {"measurement": "IC50", "setting": "[7]; [29]", "value": "1 to 10", "unit": "µM"}, {"measurement": "inhibition at 1 µM", "setting": "[7]; [30]", "value": 19, "unit": "%"}, {"measurement": "inhibition at 10 µM", "setting": "[7]; [30]", "value": 64, "unit": "%"}, {"measurement": "IC50", "setting": "[8]; [29]", "value": "~1", "unit": "µM"}, {"measurement": "inhibition at 1 µM", "setting": "[8]; [30]", "value": 41, "unit": "%"}, {"measurement": "inhibition at 10 µM", "setting": "[8]; [30]", "value": 90, "unit": "%"}, {"measurement": "IC50", "setting": "[9]; [29]", "value": "1 to 10", "unit": "µM"}, {"measurement": "inhibition at 0.1 µM", "setting": "[9]; [30]", "value": 9, "unit": "%"}, {"measurement": "inhibition at 1 µM", "setting": "[9]; [30]", "value": 38, "unit": "%"}, {"measurement": "inhibition at 10 µM", "setting": "[9]; [30]", "value": 80, "unit": "%"}, {"measurement": "IC50", "setting": "[10]; [29]", "value": "> 10", "unit": "µM"}, {"measurement": "inhibition at 10 µM", "setting": "[10]; [30]", "value": -4, "unit": "%"}, {"measurement": "IC50", "setting": "[11]; [29]", "value": "> 10", "unit": "µM"}, {"measurement": "inhibition at 10 µM", "setting": "[11]; [30]", "value": 33, "unit": "%"}, {"measurement": "IC50", "setting": "[12]; [29]", "value": "> 10", "unit": "µM"}, {"measurement": "inhibition at 10 µM", "setting": "[12]; [30]", "value": 11, "unit": "%"}, {"measurement": "IC50", "setting": "[13]; [29]", "value": "> 10", "unit": "µM"}, {"measurement": "inhibition at 10 µM", "setting": "[13]; [30]", "value": -20, "unit": "%"}, {"measurement": "% inhibition of the specific radioligand binding", "setting": "[14]; (S)-11 10 μM, n=1", "value": 17, "unit": "%"}, {"measurement": "IC50", "setting": "[14]; [29]", "value": "> 10", "unit": "µM"}, {"measurement": "IC50", "setting": "[15]; [29]", "value": "> 10", "unit": "µM"}, {"measurement": "inhibition at 10 µM", "setting": "[15]; [30]", "value": -7, "unit": "%"}, {"measurement": "IC50", "setting": "[16]; [29]", "value": "> 10", "unit": "µM"}, {"measurement": "inhibition at 10 µM", "setting": "[16]; [30]", "value": -4, "unit": "%"}, {"measurement": "IC50", "setting": "[17]; [29]", "value": "> 10", "unit": "µM"}, {"measurement": "inhibition at 10 µM", "setting": "[17]; [30]", "value": 3, "unit": "%"}, {"measurement": "IC50", "setting": "[18]", "value": "> 10", "unit": "µM"}, {"measurement": "inhibition at 10 µM", "setting": "[18]; [30]", "value": 3, "unit": "%"}, {"measurement": "% inhibition of the specific radioligand binding", "setting": "[19]; (S)-11 10 μM, n=1", "value": 15, "unit": "%"}, {"measurement": "IC50", "setting": "[19]; [29]", "value": "> 10", "unit": "µM"}, {"measurement": "% inhibition of the specific radioligand binding", "setting": "[20]; (S)-11 10 μM, n=1", "value": 2, "unit": "%"}, {"measurement": "IC50", "setting": "[20]; [29]", "value": "> 10", "unit": "µM"}, {"measurement": "% inhibition of the specific radioligand binding", "setting": "[21]; (S)-11 10 μM, n=1", "value": 8, "unit": "%"}, {"measurement": "IC50", "setting": "[21]; [29]", "value": "> 10", "unit": "µM"}, {"measurement": "IC50", "setting": "[22]; [29]", "value": "1 to 10", "unit": "µM"}, {"measurement": "inhibition at 10 µM", "setting": "[22]; [30]", "value": 84, "unit": "%"}, {"measurement": "IC50", "setting": "[23]; [29]", "value": "> 10", "unit": "µM"}, {"measurement": "inhibition at 10 µM", "setting": "[23]; [30]", "value": 31, "unit": "%"}, {"measurement": "IC50", "setting": "[24]; [29]", "value": "> 10", "unit": "µM"}, {"measurement": "inhibition at 10 µM", "setting": "[24]; [30]", "value": 14, "unit": "%"}, {"measurement": "binding affinities at the respective targets of the broad screen", "setting": "[25]", "value": "> 100", "unit": "nM"}, {"measurement": "inhibition at 10 µM", "setting": "[26]", "value": 66, "unit": "%"}, {"measurement": "inhibition at 10 µM", "setting": "[27]", "value": 29, "unit": "%"}, {"measurement": "IC50", "setting": "[28]", "value": 0.316, "unit": "µM"}]}
